The source of these data is patent US20160075653A1, “NEMATICIDAL N-(PHENYLCYCLOALKYL)CARBOXAMIDES AND N-(PHENYLCYCLOALKYL)THIOCARBOXAMIDES” (BAYER CROPSCIENCE AKTIENGESELLSCHAFT, priority 2013, published 2016).

The nature of the first data set: Measurement of log P values by HPLC on reversed phase columns (methods [a] pH 2.3, [b] pH 2.7, [c] pH 7.8). The settings on record: HPLC on reversed phase column, method [b], pH 2.7. Type of data set: physicochemical. Summed up:
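Determined per EEC Directive 79/831 Annex V.A8 by reversed-phase HPLC, 10-95% acetonitrile gradient: [a] pH 2.3, 0.1% phosphoric acid; [b] LC-MS, pH 2.7, 0.1% formic acid; [c] LC-MS, pH 7.8, 0.001 molar ammonium hydrogen carbonate. Calibrated with C3-C16 alkan-2-ones by retention-time interpolation.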
Turning to `O=C(N[C@@H]1CC[C@@H]1c1cccc(F)c1C(F)(F)F)c1ccccc1Br` (relative stereo) [Compound 654], the logP was 3.30^[b]. As to `Cc1nc(C(F)(F)F)c(C(=O)N[C@@H]2CC[C@H]2c2ccccc2C(F)(F)F)s1` (relative stereo) [Example 633], the logP was 3.49^[b]. Take `Cn1ncc(C(=O)N[C@@H]2C[C@@H]2c2ccc(Cl)cc2Cl)c1C(F)F` (relative stereo) [Example 612]: the logP was 2.99^[b]. For `O=C(N[C@@H]1CC[C@H]1c1ccc(Cl)cc1C(F)(F)F)c1cccnc1Cl` (relative stereo) [Example 715], the logP is 3.33^[b]. On to `O=C(NC1CCC1c1ccccc1C(F)(F)F)c1nccnc1C(F)(F)F` (centres unmarked) [Example 604], for which the logP is 3.18^[b].

The same data set, now with this note: HPLC on reversed phase column, method [c], pH 7.8.
As for `Cn1ncc(C(=O)N[C@@H]2C[C@@H]2c2ccc(Cl)cc2Cl)c1C(F)F` (relative stereo) [Example 612], the logP is 2.94^[c];.

As to `O=C(NC1CCC1c1ccccc1C(F)(F)F)c1nccnc1C(F)(F)F` (centres unmarked) [Example 604], the logP was 3.10^[c];.

The same data set, now with this note: HPLC on reversed phase columns, method [b], pH 2.7.
As to `Cn1cc(C(=O)N[C@@H]2CCC[C@@H]2c2ccc(F)c(F)c2)c(C(F)(F)F)n1` (relative stereo) [Example 92], the logP was 2.98^[b]. On to `Cc1nnsc1C(=O)N[C@@H]1CCC[C@@H]1c1ccc(F)c(F)c1` (relative stereo) [Example 72], for which the logP is 2.86^[b].

Consider `CCc1nn(C)c(F)c1C(=O)N[C@@H]1CCC[C@@H]1c1ccc(F)c(F)c1` (relative stereo) [Example 83], for which the logP is 2.92^[b]. As for `O=C(N[C@@H]1CCC[C@@H]1c1ccc(F)c(F)c1)c1ccccc1F` (relative stereo) [Example 66], the logP is 3.33^[b].

Take `Cn1cc(C(=O)N[C@@H]2CCC[C@@H]2c2ccc(F)c(F)c2)c(C(F)(F)F)c1` (relative stereo) [Example 91]: the logP is 3.27^[b]. Same read-out and setting: the value for `O=C(NC1CCC1c1ccc(Cl)cc1C(F)(F)F)c1ccccc1Br` (centres unmarked) [Example 722] was 4.08^[b].

The same data set, now with this note: HPLC reversed phase, method [b] (pH 2.7).
For `O=C(NC1CCC1c1ccc(F)cc1C(F)(F)F)c1cccc(Cl)c1` (centres unmarked) [Example 477], the logP was 4.02^[b].

As to `O=C(NC1CCCCC1c1ccc(Cl)cc1)c1cccnc1C(F)(F)F` (centres unmarked) [Example 368], the logP was 3.31^[b]. As for `O=C(N[C@@H]1CCC[C@@H]1c1ccc(C(F)(F)F)cc1)c1ccccc1[N+](=O)[O-]` (relative stereo) [Example 306], the logP is 3.31^[b].

As to `Cc1nc(C)c(C(=O)NC2CCCC2c2ccccc2Cl)s1` (centres unmarked) [Example 291], the logP is 2.73^[b]. In the case of `O=C(NC1CC1c1ccccc1Cl)c1cccnc1C(F)(F)F` (centres unmarked) [Example 499], the logP was 2.62^[b].

Regarding `O=C(NC1CCCC1c1ccc(Cl)cc1)c1ccccc1I` (centres unmarked) [Example 280], the logP was 3.64^[b]. Turning to `O=C(NC1CCC1c1ccc(F)cc1C(F)(F)F)c1ncc(C(F)(F)F)cc1Cl` (centres unmarked) [Example 483], the logP is 3.97^[b]. Same read-out and setting: the value for `O=C(N[C@@H]1CC[C@H]1c1ccc(Cl)cc1Cl)c1ccccc1I` (relative stereo) [Example 264] was 4.09^[b]; that for `Cc1nc(C)c(C(=O)NC2CCCCC2c2ccc(Cl)cc2)s1` (centres unmarked) [Example 366] was 3.03^[b]. Consider `O=C(NC1CCC1c1ccc(Cl)cc1Cl)c1ccc(Cl)cc1` (centres unmarked) [Example 452], for which the logP is 4.33^[b].

The same data set, now with this note: HPLC reversed phase, method [c] pH 7.8.
As to `O=C(N[C@@H]1CCC[C@@H]1c1ccc(C(F)(F)F)cc1)c1ccccc1[N+](=O)[O-]` (relative stereo) [Example 306], the logP is 3.27^[c];.

Still in this data set, the particulars now being: method [b], HPLC reversed phase, pH 2.7.
For `Cc1cc(C(=O)N(C2CC2)C2CCCCC2c2ccccc2Cl)c(C)o1` (centres unmarked) [Example 177], the logP is 5.17^[b]. Consider `CN(C(=O)c1c(C(F)F)nn(C)c1F)C1CCCCC1c1ccccc1` (centres unmarked) [Example 196], for which the logP is 3.27^[b]. For the compound `CCc1nn(C)c(F)c1C(=O)N(C1CC1)C1CCCC1c1ccc(Cl)cc1Cl` (centres unmarked) [Example 160], the logP was 4.65^[b]. The same measure, in the same setting: the same measure for `Cn1nc(C(F)F)c(C(=O)NC2CC2c2ccc(F)cc2)c1Cl` (centres unmarked) [Example 192]: 2.75^[b].

The same data set, now with this note: reversed phase HPLC columns, HPLC-MS, method letter not given; read-out: log P.
`O=C(N[C@H]1CCC1c1ccccc1C(F)(F)F)c1ccccc1I` (stereo in doubt) [Preparation Example 5, cis-2-iodo-N-{2-[2-(trifluoromethyl)phenyl]cyclobutyl}benzamide]: the chromatographic logP was 3.44.
